Tests used:
Assay type in all cases: cell-based
[1] = test system: HCT116 FOP control reporter cell line; test: HCT116 FOP control vector reporter assay (non-functional TCF elements); details: Homo sapiens, HCT-116, 36 h, HCT116 FOP control reporter cells, luciferase expression, 36 hours incubation, 50 μM to 15 nM; read-out: HCT116 FOPFlash IC50
Method in brief: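 Stable HCT116 line carrying the non-functional FOP luciferase construct, 10000 cells/well plated 24 hrs before. Compounds 50 μM to 15 nM (3.16-fold steps) in CAFTY buffer pH 7.4 with 2 mM Ca2+, 36 hours at 37° C; luciferase luminescence read.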

[2] = test system: constitutive active colorectal cancer cell (CRC) Wnt pathway; test: HCT116 Super TopFlash cellular reporter assay (constitutive active Wnt pathway); details: Homo sapiens, HCT-116, 36 h, HCT116 TOP reporter cells, luciferase expression, 36 hours incubation, 50 μM to 15 nM
Method in brief: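 HCT116 cells (β-catenin ΔS45) stably carrying Super TopFlash, with a parallel FOP-control line, were plated 24 h ahead. They were exposed 36 h at 37 °C, 5% CO2 to compound from a 50 μM–15 nM, 3.16-fold pre-dilution series in CAFTY buffer (pH 7.4, 2 mM Ca2+, 0.01% BSA). Wnt signalling was read as luciferase luminescence.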

wildtype Wnt pathway = test: HEK293 Super TopFlash cellular reporter assay, Wnt-3a stimulated (wildtype Wnt pathway); details: Homo sapiens; HEK293 TOP reporter cells, EC50 concentration of recombinant Wnt-3a, 16 hours incubation; read-out: HEK TOP OncoFlash IC50
Experimental: (§1) In order to determine the inhibitory activity of compounds for the WT Wnt signaling pathway, the Super TopFlash vector respectively FOP vector were cotransfected with pcDNA3 into HEK293 and stable transfected HEK293 cells were isolated by antibiotic selection. […] The recombinant human Wnt-3a was thereby used between 2500 and 5 ng/ml in two-fold dilution steps. […] Measurement of luciferase expression was done as described for the constitutive active Wnt assay.
In order to discover and characterize small molecules which inhibit the wildtype Wnt pathway, a cellular reporter assay was employed. The corresponding assay cell was generated by transfection of the mammalian cell line HEK293 (ATCC, #CRL-1573) with the Super TopFlash vector (Morin, Science 275, 1997, 1787-1790; Molenaar et al., Cell 86 (3), 1996, 391-399). The HEK293 cell line is cultivated at 37° C. and 5% CO2 in DMEM (Life Technologies, #41965-039), supplemented with 2 mM glutamine, 20 mM HEPES, 1.4 mM pyruvate, 0.15% Na-bicarbonate and 10% foetal bovine serum (GIBCO, #10270). Stable transfectants were generated by selection with 300 μg/ml Hygromycin.
(§2) In preparation of the assay, the two cell lines were plated 24 hours before beginning the test at 10000 cells per well in a 384 micro titre plate (MTP) in […] growth medium. […] The recombinant human Wnt-3a was thereby applied between 2500 and 5 ng/ml in two-fold dilution steps. Selective inhibitory activity for small molecules on the wildtype Wnt pathway was determined after parallel incubation of both (TOP and FOP) HEK293 reporter cell lines with a compound dilution series from 50 μM to 15 nM in steps of 3.16-fold dilutions in CAFTY buffer (130 mM NaCl, 5 mM KCl, 20 mM HEPES, 1 mM MgCl2, 5 mM NaHCO3, pH 7.4) containing 2 mM Ca^2+ and 0.01% BSA.
(§3) The compounds were thereby serially prediluted in 100% DMSO and thereafter 50 fold into the CAFTY compound dilution buffer (described above).

[3] = test system: HEK293 FOP control reporter cell line; test: HEK293 FOP control vector reporter assay; details: Homo sapiens; HEK293 FOP control reporter cells, EC50 concentration of recombinant Wnt-3a, 16 hours incubation; read-out: HEK FOP IC50
Experimental: as §1
In a parallel approach, HEK293 cells were cotransfected with the FOP control vector and pcDNA3. The FOP vector is identical to the TOP construct, but it contains instead of functional TCF elements a randomized, non-functional sequence. For this transfection a stable transfected cell line was generated as well, based on selection with Geneticin (1 mg/ml).
as §2, §3

Structure (SMILES)	IC50 [1]	IC50 [2]	IC50 (wildtype Wnt pathway)	IC50 [3]
COc1ccc(C(=O)Nc2ccc(-c3ccccc3)cc2)cc1NC(=O)CN1CCOCC1 [Example 1, N-(biphenyl-4-yl)-4-methoxy-3-[(morpholin-4-ylacetyl)amino]benzamide]	≥ 50000 nM	157 nM	3300 nM	≥ 50000 nM
COc1ccc(C(=O)Nc2ccc(-c3ccccc3)cc2)cc1NC(=O)Cn1cccn1 [Example 2, N-(biphenyl-4-yl)-4-methoxy-3-[(1H-pyrazol-1-ylacetyl)amino]benzamide]	≥ 50000 nM	3200 nM	1480 nM	50000 nM
CC(C)(C(=O)Nc1cc(C(=O)Nc2ccc(-c3ccccc3)cc2)ccc1C(F)(F)F)n1cccn1 [Example 4, N-(biphenyl-4-yl)-3-{[2-methyl-2-(1H-pyrazol-1-yl)propanoyl]amino}-4-(trifluoromethyl)benzamide]	≥ 50000 nM	112 nM	400 nM	8600 nM
COc1ccc(C(=O)Nc2ccc(-c3ccccc3)cc2)cc1NC(=O)CN1C[C@@H]2C[C@H]1CO2 [Example 7, N-(biphenyl-4-yl)-4-methoxy-3-{[(1S,4S)-2-oxa-5-azabicyclo[2.2.1]hept-5-ylacetyl]amino}benzamide]	≥ 50000 nM	963 nM	820 nM	10000 nM
COc1ccc(C(=O)Nc2ccc(-c3ccccc3)cc2)cc1NC(=O)CN1CC2CCC(C1)O2 [Example 8, N-(biphenyl-4-yl)-4-methoxy-3-[(8-oxa-3-azabicyclo[3.2.1]oct-3-ylacetyl)amino]benzamide]	≥ 50000 nM	70 nM	270 nM	≥ 50000 nM
O=C(CN1CCOCC1)Nc1cc(C(=O)Nc2ccc(-c3ccccc3)cc2)ccc1C(F)(F)F [Example 9, N-(biphenyl-4-yl)-3-[(morpholin-4-ylacetyl)amino]-4-(trifluoromethyl)benzamide]	≥ 50000 nM	40 nM	120 nM	≥ 50000 nM
COC(=O)c1ccc(C(=O)Nc2ccc(-c3ccccc3)cc2)cc1NC(=O)CN1CCOCC1 [Example 12, methyl 4-(biphenyl-4-ylcarbamoyl)-2-[(morpholin-4-ylacetyl)amino]benzoate]	≥ 50000 nM	40 nM	440 nM	≥ 50000 nM
O=C(CN1CCOCC1)Nc1cc(C(=O)Nc2ccc(-c3ccccc3)cc2)ccc1Br [Example 13, N-(biphenyl-4-yl)-4-bromo-3-[(morpholin-4-ylacetyl)amino]benzamide]	≥ 50000 nM	91 nM	500 nM	12000 nM
CC(C(=O)Nc1cc(C(=O)Nc2ccc(-c3ccccc3)cc2)ccc1C(F)(F)F)N1CCOCC1 (centres unmarked) [Example 14, N-(biphenyl-4-yl)-3-{[2-(morpholin-4-yl)propanoyl]amino}-4-(trifluoromethyl)benzamide]	≥ 50000 nM	27 nM	240 nM	7000 nM
C[C@@H](C(=O)Nc1cc(C(=O)Nc2ccc(-c3ccccc3)cc2)ccc1C(F)(F)F)N1CCOCC1 [Example 15, N-(biphenyl-4-yl)-3-{[(2S)-2-(morpholin-4-yl)propanoyl]amino}-4-(trifluoromethyl)benzamide]	39500 nM	29.6 nM	100 nM	4000 nM

Now from value to compound, other results behind:

IC50 [1]	IC50 [2]	IC50 (wildtype Wnt pathway)	Structure (SMILES)	IC50 [3]
≥ 50000 nM	17.9 nM	26 nM	C[C@H](C(=O)Nc1cc(C(=O)Nc2ccc(-c3ccccc3)cc2)ccc1C(F)(F)F)N1CCOCC1 [Example 16, N-(biphenyl-4-yl)-3-{[(2R)-2-(morpholin-4-yl)propanoyl]amino}-4-(trifluoromethyl)benzamide]	7900 nM
≥ 50000 nM	240 nM	290 nM	CC(C)(C(=O)Nc1cc(C(=O)Nc2ccc(-c3ccccc3)cc2)ccc1C(F)(F)F)N1CCOCC1 [Example 17, N-(biphenyl-4-yl)-3-{[2-methyl-2-(morpholin-4-yl)propanoyl]amino}-4-(trifluoromethyl)benzamide]	33000 nM
≥ 50000 nM	58.7 nM	690 nM	N#Cc1ccc(C(=O)Nc2ccc(-c3ccccc3)cc2)cc1NC(=O)CN1CCOCC1 [Example 18, N-(biphenyl-4-yl)-4-cyano-3-[(morpholin-4-ylacetyl)amino]benzamide]	19000 nM
≥ 50000 nM	62.5 nM	120 nM	O=C(CN1CCOCC1)Nc1cc(C(=O)Nc2ccc(-c3ccccc3)cc2)ccc1-c1ccco1 [Example 20, N-(biphenyl-4-yl)-4-(2-furyl)-3-[(morpholin-4-ylacetyl)amino]benzamide]	≥ 50000 nM
≥ 50000 nM	55.2 nM	77 nM	CNC(=O)c1ccc(C(=O)Nc2ccc(-c3ccccc3)cc2)cc1NC(=O)CN1CCOCC1 [Example 22, N^4-(biphenyl-4-yl)-N^1-methyl-2-[(morpholin-4-ylacetyl)amino]terephthalamide]	≥ 50000 nM
≥ 50000 nM	32 nM	38 nM	O=C(CN1CCOCC1)Nc1cc(C(=O)Nc2ccc(-c3ccccc3)cc2)ccc1OC(F)(F)F [Example 23, N-(biphenyl-4-yl)-3-[(morpholin-4-ylacetyl)amino]-4-(trifluoromethoxy)benzamide]	≥ 50000 nM
≥ 50000 nM	43.7 nM	120 nM	CC(C)Oc1ccc(C(=O)Nc2ccc(-c3ccccc3)cc2)cc1NC(=O)CN1CCOCC1 [Example 25, N-(biphenyl-4-yl)-4-isopropoxy-3-[(morpholin-4-ylacetyl)amino]benzamide]	≥ 50000 nM
≥ 50000 nM	63.7 nM	970 nM	CCOc1ccc(C(=O)Nc2ccc(-c3ccccc3)cc2)cc1NC(=O)CN1CCOCC1 [Example 26, N-(biphenyl-4-yl)-4-ethoxy-3-[(morpholin-4-ylacetyl)amino]benzamide]	≥ 50000 nM
23000 nM	1200 nM	700 nM	COc1ccc(NC(=O)c2ccc(-c3ccccc3)cc2)cc1NC(=O)Cn1cccn1 [Example 27, N-{4-methoxy-3-[(1H-pyrazol-1-ylacetyl)amino]phenyl}biphenyl-4-carboxamide]	9300 nM
≥ 50000 nM	1790 nM	2400 nM	COc1ccc(NC(=O)c2ccc(-c3ccccc3)cc2)cc1NC(=O)C(C)(C)N1CCOCC1 [Example 28, N-(4-methoxy-3-{[2-methyl-2-(morpholin-4-yl)propanoyl]amino}phenyl)biphenyl-4-carboxamide]	≥ 50000 nM
≥ 50000 nM	1100 nM		COCCOCCOc1ccc(C(=O)Nc2ccc(-c3ccc(C)cc3)cc2)cc1NC(=O)C1(N2CCOCC2)CC1 [Example 221, 4-[2-(2-methoxyethoxy)ethoxy]-N-(4′-methylbiphenyl-4-yl)-3-({[1-(morpholin-4-yl)cyclopropyl]carbonyl}amino)benzamide]	
9000 nM	105 nM		CN1CCN(CC(=O)Nc2cc(C(=O)Nc3ccc(-c4ccccc4)cc3)ccc2OCC2CC2)CC1 [Example 222, N-(biphenyl-4-yl)-4-(cyclopropylmethoxy)-3-{[(4-methylpiperazin-1-yl)acetyl]amino}benzamide]	
3100 nM	1380 nM		O=C(Nc1ccc([N+](=O)[O-])cc1Cl)c1cc(Cl)ccc1O [Ref., niclosamide, reference compound]	
